In patent US20080234262A1 (Wyeth, priority 2007, published 2008):

How the values were obtained:
PI3K = PI3K (Homo sapiens, UniProt P42336); test: Fluorescence polarization assay for PI3K; assay type: biochemical; conditions: PI3Kα; read-out: PI3Kα IC50;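 further: PI3K kinase reaction on PIP2 with ATP, 30-60 min, product sensed by GST-GRP with red probe in fluorescence polarization (mP), controls without enzyme and at zero time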
breast line MDA468 = test: In vitro cell culture growth assay (MTS), MDA468; assay type: cell-based, human; conditions: Homo sapiens, 72 h, MDA468 cells, three days after drug treatment
How it was run: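 MDA468 or LNCap cells received inhibitors one day after plating and were grown for three days. Viable cell density read by MTS conversion, absorbance 490 nm, expressed as percent of control growth versus vehicle-treated cells on the same plate.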

prostate line LNCap = test: In vitro cell culture growth assay (MTS), LNCap; assay type: cell-based, human; conditions: Homo sapiens, LNCaP, 72 h, LNCap cells, three days after drug treatment

PI3K, sequence (P42336 whole entry): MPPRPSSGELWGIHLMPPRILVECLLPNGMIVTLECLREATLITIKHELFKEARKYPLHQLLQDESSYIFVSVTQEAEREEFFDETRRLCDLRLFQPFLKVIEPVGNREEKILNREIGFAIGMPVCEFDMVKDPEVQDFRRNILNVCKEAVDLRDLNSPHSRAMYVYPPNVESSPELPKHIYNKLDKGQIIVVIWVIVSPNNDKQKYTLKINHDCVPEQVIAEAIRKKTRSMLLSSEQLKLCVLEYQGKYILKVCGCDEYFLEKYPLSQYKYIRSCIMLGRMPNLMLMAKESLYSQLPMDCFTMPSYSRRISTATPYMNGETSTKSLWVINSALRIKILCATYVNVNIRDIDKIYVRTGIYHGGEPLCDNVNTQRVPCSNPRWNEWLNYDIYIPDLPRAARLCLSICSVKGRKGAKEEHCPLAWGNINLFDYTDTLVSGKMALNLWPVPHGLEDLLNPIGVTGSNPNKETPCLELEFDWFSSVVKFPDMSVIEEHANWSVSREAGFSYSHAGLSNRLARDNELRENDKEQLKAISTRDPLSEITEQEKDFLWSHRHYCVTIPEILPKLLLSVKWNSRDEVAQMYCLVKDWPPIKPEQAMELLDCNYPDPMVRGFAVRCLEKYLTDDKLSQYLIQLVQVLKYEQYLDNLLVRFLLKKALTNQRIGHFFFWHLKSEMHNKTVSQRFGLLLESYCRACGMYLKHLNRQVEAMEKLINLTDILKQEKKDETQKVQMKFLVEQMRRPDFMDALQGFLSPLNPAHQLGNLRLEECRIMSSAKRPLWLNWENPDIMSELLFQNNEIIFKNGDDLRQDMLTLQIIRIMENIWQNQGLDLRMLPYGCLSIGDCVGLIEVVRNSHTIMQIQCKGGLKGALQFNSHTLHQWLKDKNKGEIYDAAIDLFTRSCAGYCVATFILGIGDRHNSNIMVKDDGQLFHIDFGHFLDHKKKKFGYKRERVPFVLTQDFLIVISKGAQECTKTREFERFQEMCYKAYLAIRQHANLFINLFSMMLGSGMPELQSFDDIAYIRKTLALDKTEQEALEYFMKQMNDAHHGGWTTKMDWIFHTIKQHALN
PI3K, sequence (P27986 whole entry partner): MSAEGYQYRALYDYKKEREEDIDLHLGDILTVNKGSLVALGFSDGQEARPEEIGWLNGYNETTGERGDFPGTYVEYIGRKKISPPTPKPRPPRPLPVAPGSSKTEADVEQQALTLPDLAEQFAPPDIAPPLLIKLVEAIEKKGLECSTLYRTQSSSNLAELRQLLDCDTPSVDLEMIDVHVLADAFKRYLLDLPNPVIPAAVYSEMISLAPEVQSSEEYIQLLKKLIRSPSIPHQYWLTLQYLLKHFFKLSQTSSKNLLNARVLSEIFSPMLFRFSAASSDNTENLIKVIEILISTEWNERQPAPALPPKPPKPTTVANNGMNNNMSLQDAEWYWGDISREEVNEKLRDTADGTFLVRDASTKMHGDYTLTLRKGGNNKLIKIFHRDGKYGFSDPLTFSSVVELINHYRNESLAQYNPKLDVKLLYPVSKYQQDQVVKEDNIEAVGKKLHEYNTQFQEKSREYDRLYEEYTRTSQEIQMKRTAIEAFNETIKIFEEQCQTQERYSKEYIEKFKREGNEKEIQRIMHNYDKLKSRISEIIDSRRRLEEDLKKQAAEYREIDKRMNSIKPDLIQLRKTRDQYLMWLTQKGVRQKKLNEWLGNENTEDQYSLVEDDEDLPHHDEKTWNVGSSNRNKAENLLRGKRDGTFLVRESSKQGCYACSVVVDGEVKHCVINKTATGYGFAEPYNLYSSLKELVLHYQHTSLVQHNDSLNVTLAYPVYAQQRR

SMILES	IC50 (PI3K) [nM]	IC50 (breast line MDA468) [nM]	IC50 (prostate line LNCap) [nM]
CCCNC(=O)Nc1ccc(-c2nc(N3CCOCC3)c3cnn(C4CCN(Cc5ccccc5)CC4)c3n2)cc1 [Example 254, 1-{4-[1-(1-benzylpiperidin-4-yl)-4-morpholin-4-yl-1H-pyrazolo[3,4-d]pyrimidin-6-yl]phenyl}-3-propylurea]	341	1500	220
O=C(NCC1CC1)Nc1ccc(-c2nc(N3CCOCC3)c3cnn(C4CCN(Cc5ccccc5)CC4)c3n2)cc1 [Example 262, 1-{4-[1-(1-benzylpiperidin-4-yl)-4-morpholin-4-yl-1H-pyrazolo[3,4-d]pyrimidin-6-yl]phenyl}-3-(cyclopropylmethyl)urea]	385	3000	700
C=CCNC(=O)Nc1ccc(-c2nc(N3CCOCC3)c3cnn(C4CCN(Cc5ccccc5)CC4)c3n2)cc1 [Example 263, 1-allyl-3-{4-[1-(1-benzylpiperidin-4-yl)-4-morpholin-4-yl-1H-pyrazolo[3,4-d]pyrimidin-6-yl]phenyl}urea]	268	1800	250
NCCNC(=O)Nc1ccc(-c2nc(N3CCOCC3)c3cnn(C4CCN(Cc5ccccc5)CC4)c3n2)cc1 [Example 267, 1-(2-aminoethyl)-3-{4-[1-(1-benzylpiperidin-4-yl)-4-morpholin-4-yl-1H-pyrazolo[3,4-d]pyrimidin-6-yl]phenyl}urea]	14	2700	2000
O=C(NCCCO)Nc1ccc(-c2nc(N3CCOCC3)c3cnn(C4CCN(Cc5ccccc5)CC4)c3n2)cc1 [Example 269, 1-{4-[1-(1-benzylpiperidin-4-yl)-4-morpholin-4-yl-1H-pyrazolo[3,4-d]pyrimidin-6-yl]phenyl}-3-(3-hydroxypropyl)urea]	364	700	80
CCONC(=O)Nc1ccc(-c2nc(N3CCOCC3)c3cnn(C4CCN(Cc5ccccc5)CC4)c3n2)cc1 [Example 287, 1-{4-[1-(1-benzylpiperidin-4-yl)-4-morpholin-4-yl-1H-pyrazolo[3,4-d]pyrimidin-6-yl]phenyl}-3-ethoxyurea]	273	200	680
O=C(NCC(F)(F)F)Nc1ccc(-c2nc(N3CCOCC3)c3cnn(C4CCN(Cc5ccccc5)CC4)c3n2)cc1 [Example 289, 1-{4-[1-(1-benzylpiperidin-4-yl)-4-morpholin-4-yl-1H-pyrazolo[3,4-d]pyrimidin-6-yl]phenyl}-3-(2,2,2-trifluoroethyl)urea]	590	1300	320
NNC(=O)Nc1ccc(-c2nc(N3CCOCC3)c3cnn(-c4ccccc4)c3n2)cc1 [Example 292, N-[4-(4-morpholin-4-yl-1-phenyl-1H-pyrazolo[3,4-d]pyrimidin-6-yl)phenyl]hydrazinecarboxamide]	171	8000	5200
O=C(NO)Nc1ccc(-c2nc(N3CCOCC3)c3cnn(-c4ccccc4)c3n2)cc1 [Example 293, 1-hydroxy-3-[4-(4-morpholin-4-yl-1-phenyl-1H-pyrazolo[3,4-d]pyrimidin-6-yl)phenyl]urea]	211	1100	480
O=C(NCCF)Nc1ccc(-c2nc(N3CCOCC3)c3cnn(-c4ccccc4)c3n2)cc1 [Example 294, 1-(2-fluoroethyl)-3-[4-(4-morpholin-4-yl-1-phenyl-1H-pyrazolo[3,4-d]pyrimidin-6-yl)phenyl]urea]	251	900	190
CNCCNC(=O)Nc1ccc(-c2nc(N3CCOCC3)c3cnn(C4CCN(Cc5ccccc5)CC4)c3n2)cc1 [Example 300, 1-{4-[1-(1-benzylpiperidin-4-yl)-4-morpholin-4-yl-1H-pyrazolo[3,4-d]pyrimidin-6-yl]phenyl}-3-[2-(methylamino)ethyl]urea]	13	200	200
NC(=O)Nc1ccc(-c2nc(N3CCOCC3)c3cnn(C4CCN(C(=O)c5cccnc5)CC4)c3n2)cc1 [Example 301, 1-(4-{4-morpholin-4-yl-1-[1-(pyridin-3-ylcarbonyl)piperidin-4-yl]-1H-pyrazolo[3,4-d]pyrimidin-6-yl}phenyl)urea]	179	1800	3000
O=C(NCCF)Nc1ccc(-c2nc(N3CCOCC3)c3cnn(C4CCN(C(=O)c5cccnc5)CC4)c3n2)cc1 [Example 303, 1-(2-fluoroethyl)-3-(4-{4-morpholin-4-yl-1-[1-(pyridin-3-ylcarbonyl)piperidin-4-yl]-1H-pyrazolo[3,4-d]pyrimidin-6-yl}phenyl)urea]	541	500	630
O=C(NCCO)Nc1ccc(-c2nc(N3CCOCC3)c3cnn(C4CCN(C(=O)c5cccnc5)CC4)c3n2)cc1 [Example 304, 1-(2-hydroxyethyl)-3-(4-{4-morpholin-4-yl-1-[1-(pyridin-3-ylcarbonyl)piperidin-4-yl]-1H-pyrazolo[3,4-d]pyrimidin-6-yl}phenyl)urea]	220	9000	7500
O=C(NO)Nc1ccc(-c2nc(N3CCOCC3)c3cnn(C4CCN(C(=O)c5cccnc5)CC4)c3n2)cc1 [Example 305, 1-hydroxy-3-(4-{4-morpholin-4-yl-1-[1-(pyridin-3-ylcarbonyl)piperidin-4-yl]-1H-pyrazolo[3,4-d]pyrimidin-6-yl}phenyl)urea]	604	7200	10100
NNC(=O)Nc1ccc(-c2nc(N3CCOCC3)c3cnn(C4CCN(C(=O)c5cccnc5)CC4)c3n2)cc1 [Example 306, N-(4-{4-morpholin-4-yl-1-[1-(pyridin-3-ylcarbonyl)piperidin-4-yl]-1H-pyrazolo[3,4-d]pyrimidin-6-yl}phenyl)hydrazinecarboxamide]	398	14000	10000
CCNC(=O)Nc1ccc(-c2nc(N3CCOCC3)c3cnn(C4CCN(C(=O)c5cccnc5)CC4)c3n2)cc1 [Example 307, 1-ethyl-3-(4-{4-morpholin-4-yl-1-[1-(pyridin-3-ylcarbonyl)piperidin-4-yl]-1H-pyrazolo[3,4-d]pyrimidin-6-yl}phenyl)urea]	434	200	60
CONC(=O)Nc1ccc(-c2nc(N3CCOCC3)c3cnn(C4CCN(C(=O)c5cccnc5)CC4)c3n2)cc1 [Example 308, 1-methoxy-3-(4-{4-morpholin-4-yl-1-[1-(pyridin-3-ylcarbonyl)piperidin-4-yl]-1H-pyrazolo[3,4-d]pyrimidin-6-yl}phenyl)urea]	1810	3000	800
NNC(=O)Nc1ccc(-c2nc(N3CCOCC3)c3cnn(C4CCN(Cc5ccccc5)CC4)c3n2)cc1 [Example 309, N-{4-[1-(1-benzylpiperidin-4-yl)-4-morpholin-4-yl-1H-pyrazolo[3,4-d]pyrimidin-6-yl]phenyl}hydrazinecarboxamide]	155	7500	900
NC(=O)Nc1ccc(-c2nc(N3CCOCC3)c3cnn(C4CCN(Cc5cccnc5)CC4)c3n2)cc1 [Example 313, 1-(4-{4-morpholin-4-yl-1-[1-(pyridin-3-ylmethyl)piperidin-4-yl]-1H-pyrazolo[3,4-d]pyrimidin-6-yl}phenyl)urea]	82	200	200
O=C(NCCO)Nc1ccc(-c2nc(N3CCOCC3)c3cnn(C4CCN(Cc5cccnc5)CC4)c3n2)cc1 [Example 316, 1-(2-hydroxyethyl)-3-(4-{4-morpholin-4-yl-1-[1-(pyridin-3-ylmethyl)piperidin-4-yl]-1H-pyrazolo[3,4-d]pyrimidin-6-yl}phenyl)urea]	163	600	500
CNC(=O)Nc1ccc(-c2nc(N3CCOCC3)c3cnn(C4CCC5(CC4)OCCO5)c3n2)cc1 [Example 321, 1-{4-[1-(1,4-dioxaspiro[4.5]dec-8-yl)-4-morpholin-4-yl-1H-pyrazolo[3,4-d]pyrimidin-6-yl]phenyl}-3-methylurea]	74	100	27
CNC(=O)Nc1ccc(-c2nc(N3CCOCC3)c3cnn(C4CCC(=O)CC4)c3n2)cc1 [Example 322, 1-methyl-3-{4-[4-morpholin-4-yl-1-(4-oxocyclohexyl)-1H-pyrazolo[3,4-d]pyrimidin-6-yl]phenyl}urea]	56	200	27
CNC(=O)Nc1ccc(-c2nc(N3CCOCC3)c3cnn(C4CCC(O)CC4)c3n2)cc1 (stereo not drawn) [Example 323, 1-{4-[1-(4-hydroxycyclohexyl)-4-morpholin-4-yl-1H-pyrazolo[3,4-d]pyrimidin-6-yl]phenyl}-3-methylurea]	39	200	54
CNC(=O)Nc1ccc(-c2nc(N3CCOCC3)c3cnn(C4CCN(C(=O)c5cccnc5C)CC4)c3n2)cc1 [Example 329, 1-methyl-3-[4-(1-{1-[(2-methylpyridin-3-yl)carbonyl]piperidin-4-yl}-4-morpholin-4-yl-1H-pyrazolo[3,4-d]pyrimidin-6-yl)phenyl]urea]	216	900	250
CNC(=O)Nc1ccc(-c2nc(N3CCOCC3)c3cnn(C4CCN(Cc5ccc(OC)nc5)CC4)c3n2)cc1 [Example 330, 1-[4-(1-{1-[(6-methoxypyridin-3-yl)methyl]piperidin-4-yl}-4-morpholin-4-yl-1H-pyrazolo[3,4-d]pyrimidin-6-yl)phenyl]-3-methylurea]	33	700	27
CNC(=O)Nc1ccc(-c2nc(N3CCOCC3)c3cnn(C4CCN(Cc5ccccn5)CC4)c3n2)cc1 [Example 331, 1-methyl-3-(4-{4-morpholin-4-yl-1-[1-(pyridin-2-ylmethyl)piperidin-4-yl]-1H-pyrazolo[3,4-d]pyrimidin-6-yl}phenyl)urea]	65	500	27
